Reference: US20250032524A1, “BROAD SPECTRUM AMINOGLYCOSIDES AND USES THEREOF” (REVAGENIX, INC., priority 2022, published 2025)
Read-outs that look alike come from different tables or passages of the source.

How the values were obtained:
Format in all cases: cell-based
[1] = system: A. baumannii-calcoaceticus; test: Antibacterial surveillance of clinical isolates (MIC50/90); details: 100 isolates
In short: (§1)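 Isolates were suspended to 5×10^5 CFU/mL final in cation-adjusted Mueller-Hinton broth containing 2-fold serial compound dilutions, then incubated 18-24 hours at 35° C in ambient air. The MIC was read as no visible growth (OD 600 nm<0.05), and MIC50/MIC90 were derived across each isolate set.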

Enterobacterales = test: as above
In short: as §1

P. aeruginosa [2] = test: as above; details: Pseudomonas aeruginosa, 103 isolates
In short: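 CLSI broth microdilution in cation-adjusted Mueller-Hinton broth, final inoculum 5×10^5 CFU/mL, 2-fold compound dilutions, 35° C ambient air for 18-24 hours. MIC = lowest concentration preventing visible growth (OD 600 nm<0.05). SENTRY US/European isolates (1:1); MIC50/MIC90 = concentrations inhibiting ≥50%/≥90% of each set.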

A. baumannii = test: MIC broth microdilution (CLSI); details: Acinetobacter baumannii
In short: (§2)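 Organisms from overnight agar colonies were adjusted to 0.5 McFarland and tested in cation-adjusted Mueller-Hinton broth at a final 5×10^5 CFU/mL against 2-fold serial compound dilutions. Plates were incubated in ambient air at 35° C. for 18-24 hours; MIC was the lowest concentration preventing visible growth (OD 600 nm<0.05).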

E. coli = test: MIC broth microdilution (CLSI); details: Escherichia coli
In short: as §2

K. pneumoniae = test: MIC broth microdilution (CLSI)
In short: as §2

S. enterica = test: MIC broth microdilution (CLSI); details: Salmonella enterica, read-out: Activity (MIC)
In short: as §2

S. aureus = test: MIC broth microdilution (CLSI); details: for MIC: Staphylococcus aureus
In short: as §2

C. freundii = test: MIC broth microdilution (CLSI); details: Citrobacter freundii, read-out: Activity (MIC)
In short: as §2

P. mirabilis = test: MIC broth microdilution (CLSI); details: Proteus mirabilis; strain APMI1048, MDR Clinical isolate (CDC CRE panel), CDC AR Bank 0159
In short: as §2

K. aerogenes = test: MIC broth microdilution (CLSI); details: Klebsiella aerogenes; strain AEAE1042, MDR Clinical isolate (CDC CRE panel), CDC AR Bank 0161
In short: as §2

E. cloacae = test: MIC broth microdilution (CLSI); details: Enterobacter cloacae; strain AECL1089, MDR Clinical isolate (CDC CRE panel), CDC AR Bank 0154
In short: as §2

P. aeruginosa [3] = test: MIC broth microdilution (CLSI); details: Pseudomonas aeruginosa
In short: as §2

[4] = system: all sets of organisms tested (SENTRY clinical isolates); test: Antibacterial surveillance, overall statement; details: all sets of organisms tested (Table 3); read-out: MIC50,90 values
Experimental: Minimum inhibitory concentrations for representative example compounds herein were determined by a broth microdilution method in accordance with the Clinical and Laboratory Standards Institute (CLSI) guidelines. In brief, organism suspensions were adjusted to a 0.5 McFarland standard to yield a final inoculum between 3×10^5 and 7×10^5 colony-forming units (CFU)/mL. The inoculum was prepared by suspension of a colony from an agar plate that was prepared the previous day. Compound dilutions and inoculum were prepared in sterile, cation adjusted Mueller-Hinton Broth (Beckton Dickinson).
Bacteria were suspended in sterile saline and added to each assay plate to obtain a final concentration of 5×10^5 CFU/mL. An inoculum volume of 100 μL was added to wells containing 100 μL of broth with 2-fold serial dilutions of the test compound. All inoculated microdilution trays were incubated in ambient air at 35° C. for 18-24 hours. Following incubation, the lowest concentration of the compound that prevented visible growth (OD 600 nm<0.05) is recorded was the MIC. […] Performance of the assay was monitored by the use of laboratory quality-control strains and a standard compound with a defined MIC spectrum (neomycin), in accordance with CLSI guidelines.
Several compounds of the disclosure (Compound 1, 2, and 3) were further evaluated against several hundred bacterial isolates (isolated in the United States and Europe, 1:1) selected from the SENTRY Antimicrobial Surveillance Program (JMI Laboratories, North Liberty, Iowa). The set of clinical isolates included 300 randomly selected Enterobacterales, 103 randomly selected P. aeruginosa, 100 randomly selected A. baumannii-calcoaceticus, 20 randomly selected Methicillin-sensitive S. aureus (MSSA), and 30 randomly selected Methicillin-resistant S. aureus (MRSA). In addition, 101 Enterobacterales and 50 P. aeruginosa isolates with genetically defined mechanisms of aminoglycoside resistance were included. […]

[5] = system: clinical isolates of multi-drug resistant bacterial pathogens including A. baumannii, MRSA, P. aeruginosa, and CRE; test: MIC secondary panel, overall statement; details: read-out: minimum inhibitory concentration (MIC) values
In short: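 CLSI broth microdilution in cation-adjusted Mueller-Hinton broth, 2-fold compound dilutions, final inoculum 5×10^5 CFU/mL. Incubated in ambient air at 35° C for 18-24 hours; MIC is lowest concentration preventing visible growth (OD 600 nm<0.05). QC strains and neomycin standard monitored performance.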

## C[C@H](N)[C@@H]1CC[C@@H](N)[C@@H](O[C@@H]2[C@@H](N)[C@H](O)[C@@H](NC(=O)[C@@H](O)[C@H](F)CN)[C@H](O)[C@H]2O[C@@H]2O[C@H](CO)[C@@H](O[C@H]3O[C@@H](CN)[C@@H](O)[C@H](O)[C@H]3N)[C@H]2O)O1 [Compound 3, (2R,3R)-4-amino-N-((1R,2S,3S,4R,5R,6S)-3-amino-4-(((2R,3R,6S)-3-amino-6-((S)-1-aminoethyl)tetrahydro-2H-pyran-2-yl)oxy)-5-(((2S,3R,4S,5R)-4-(((2R,3R,4R,5S,6S)-3-amino-6-(aminomethyl)-4,5-dihydroxytetrahydro-2H-pyran-2-yl)oxy)-3-hydroxy-5-(hydroxymethyl)tetrahydrofuran-2-yl)oxy)-2,6-dihydroxycyclohexyl)-3-fluoro-2-hydroxybutanamide]
[1]; read-out: MIC50
  MIC50: < 16 µg/mL
[1]; read-out: MIC90
  MIC90: < 16 µg/mL
Enterobacterales
  MIC50: < 16 µg/mL
  MIC90: < 16 µg/mL
P. aeruginosa [2]; read-out: MIC50
  MIC50: < 16 µg/mL
P. aeruginosa [2]; read-out: MIC90
  MIC90: < 16 µg/mL
A. baumannii; read-out: Activity (MIC), strain NABA0007, ΔadeJK efflux
  MIC: < 16 µg/mL
A. baumannii; read-out: Activity (MIC), strain NABA1427, MDR Clinical isolate
  MIC: < 16 µg/mL
A. baumannii; read-out: Activity (MIC), strain NABA1433, MDR Clinical isolate
  MIC: < 16 µg/mL
A. baumannii; read-out: Activity (MIC), strain NABA1434, MDR Clinical isolate
  MIC: < 16 µg/mL
A. baumannii; read-out: Activity (MIC), strain NABA1436, MDR Clinical isolate
  MIC: < 16 µg/mL
A. baumannii; read-out: Activity (MIC), strain NABA1437, MDR Clinical isolate
  MIC: < 16 µg/mL
A. baumannii; read-out: Activity (MIC), strain NABA1438, MDR Clinical isolate
  MIC: < 16 µg/mL
A. baumannii; read-out: Activity (MIC), strain NABA1439, MDR Clinical isolate
  MIC: < 16 µg/mL
A. baumannii; read-out: Activity (MIC), strain NABA1448, MDR Clinical isolate
  MIC: < 16 µg/mL
A. baumannii; read-out: Activity (MIC), strain NABA1449, MDR Clinical isolate
  MIC: < 16 µg/mL
A. baumannii; read-out: Activity (MIC), strain NABA1450, MDR Clinical isolate
  MIC: < 16 µg/mL
A. baumannii; strain NABA0006, WT parent, read-out: Activity (MIC)
  MIC: < 16 µg/mL
A. baumannii; strain NABA0020, AME negative strain, read-out: Activity (MIC)
  MIC: < 16 µg/mL
E. coli; read-out: Activity (MIC), strain AECO1225, MDR Clinical isolate (CDC CRE panel), CDC AR Bank 0118
  MIC: < 16 µg/mL
E. coli; read-out: Activity (MIC), strain AECO1226, MDR Clinical isolate (CDC CRE panel), CDC AR Bank 0119
  MIC: < 16 µg/mL
E. coli; read-out: Activity (MIC), strain AECO1227, MDR Clinical isolate (CDC CRE panel), CDC AR Bank 0128
  MIC: < 16 µg/mL
E. coli; read-out: Activity (MIC), strain NECO0003, ΔtolC
  MIC: < 16 µg/mL
E. coli; read-out: Activity (MIC), strain NECO0245, ArmA
  MIC: < 16 µg/mL
E. coli; strain NECO0001, WT QC, read-out: Activity (MIC)
  MIC: < 16 µg/mL
E. coli; strain NECO0002, WT, read-out: Activity (MIC)
  MIC: < 16 µg/mL
E. coli; strain NECO0243, empty vector, read-out: Activity (MIC)
  MIC: < 16 µg/mL
E. coli; strain NECO0244, AAC(6')-Ib, read-out: Activity (MIC)
  MIC: < 16 µg/mL
E. coli; strain NECO0289, APH(3')-Ia, read-out: Activity (MIC)
  MIC: < 16 µg/mL
E. coli; strain NECO0302, AAC(3)-IIa, read-out: Activity (MIC)
  MIC: < 16 µg/mL
E. coli; strain NECO0350, AAC(2')-I, read-out: Activity (MIC)
  MIC: < 16 µg/mL
E. coli; strain NECO0359, ANT(4')-Ia, read-out: Activity (MIC)
  MIC: < 16 µg/mL
K. pneumoniae; Klebsiella pneumoniae, strain AKPN1246, MDR Clinical isolate (CDC CRE panel), CDC AR Bank 0139
  MIC: < 16 µg/mL
K. pneumoniae; strain AKPN1250, MDR Clinical isolate (CDC CRE panel), CDC AR Bank 0143
  Activity (MIC): + (MIC threshold for positive activity (+) is ≤16 μg/mL)
K. pneumoniae; strain AKPN1253, MDR Clinical isolate (CDC CRE panel), CDC AR Bank 0148
  Activity (MIC): + (MIC threshold for positive activity (+) is ≤16 μg/mL)
K. pneumoniae; strain AKPN1255, MDR Clinical isolate (CDC CRE panel), CDC AR Bank 0153
  Activity (MIC): + (MIC threshold for positive activity (+) is ≤16 μg/mL)
S. enterica
  MIC: < 16 µg/mL
S. aureus; ATCC29213, strain NSAU001, wild-type, QC, ATCC 29213
  MIC: < 16 µg/mL
S. aureus; strain NSAU1004, MDR Clinical isolate
  MIC: < 16 µg/mL
S. aureus; strain NSAU1015, MDR Clinical isolate
  Activity (MIC): + (MIC threshold for positive activity (+) is ≤16 μg/mL)
S. aureus; strain NSAU1023, MDR Clinical isolate
  Activity (MIC): + (MIC threshold for positive activity (+) is ≤16 μg/mL)
S. aureus; strain NSAU1063, MDR Clinical isolate
  Activity (MIC): + (MIC threshold for positive activity (+) is ≤16 μg/mL)
C. freundii
  MIC: < 16 µg/mL
P. mirabilis
  MIC: < 16 µg/mL
K. aerogenes
  MIC: < 16 µg/mL
E. cloacae
  MIC: < 16 µg/mL
P. aeruginosa [3]; read-out: Activity (MIC), strain NPAE0006, Efflux KO, Aph(3')-IIb
  MIC: < 16 µg/mL
P. aeruginosa [3]; read-out: Activity (MIC), strain NPAE0010, MexXY over-expressed, Aph(3')-IIb
  MIC: < 16 µg/mL
P. aeruginosa [3]; read-out: Activity (MIC), strain NPAE1288, MDR Clinical isolate
  MIC: < 16 µg/mL
P. aeruginosa [3]; read-out: Activity (MIC), strain NPAE1293, MDR Clinical isolate
  MIC: < 16 µg/mL
P. aeruginosa [3]; read-out: Activity (MIC), strain NPAE1299, MDR Clinical isolate
  MIC: < 16 µg/mL
P. aeruginosa [3]; read-out: Activity (MIC), strain NPAE1302, MDR Clinical isolate
  MIC: < 16 µg/mL
P. aeruginosa [3]; read-out: Activity (MIC), strain NPAE1303, MDR Clinical isolate
  MIC: < 16 µg/mL
P. aeruginosa [3]; read-out: Activity (MIC), strain NPAE1308, MDR Clinical isolate
  MIC: < 16 µg/mL
P. aeruginosa [3]; read-out: Activity (MIC), strain NPAE1310, MDR Clinical isolate
  MIC: < 16 µg/mL
P. aeruginosa [3]; read-out: Activity (MIC), strain NPAE1313, MDR Clinical isolate
  MIC: > 16 µg/mL
P. aeruginosa [3]; read-out: Activity (MIC), strain NPAE1316, MDR Clinical isolate
  MIC: < 16 µg/mL
P. aeruginosa [3]; read-out: Activity (MIC), strain NPAE1323, MDR Clinical isolate
  MIC: < 16 µg/mL
P. aeruginosa [3]; strain NPAE0001, WT Aph(3')-IIb, QC, read-out: Activity (MIC)
  MIC: < 16 µg/mL
P. aeruginosa [3]; strain NPAE0002, WT Aph(3')-IIb, read-out: Activity (MIC)
  MIC: < 16 µg/mL
P. aeruginosa [3]; strain NPAE0359, aph(3')-IIb KO (tetR), read-out: Activity (MIC)
  MIC: < 16 µg/mL
[4]
  MIC50: ≤ 16 µg/mL
[5]
  MIC: ≤ 16 µg/mL
